Results as given in US12016864B2, “LOX enzyme inhibiting methods and compositions” (ANOVIA BIOSCIENCES, INC., priority 2021, dated 2024).

These compounds were tested against T1, Recombinant human LOXL2 (lysyl oxidase like 2) (Homo sapiens, UniProt Q9Y4K0) (assay: LOXL2 inhibition assay, fluorometric (cadaverine / HRP / Amplex Red)). Details: recombinant human LOXL2 130 nM; 30 min preincubation at 37° C.; 2.5 mM cadaverine; read-out: Activity Range LOXL2.
T1 construct: purchased R&D systems
T1 sequence (Q9Y4K0 26-774): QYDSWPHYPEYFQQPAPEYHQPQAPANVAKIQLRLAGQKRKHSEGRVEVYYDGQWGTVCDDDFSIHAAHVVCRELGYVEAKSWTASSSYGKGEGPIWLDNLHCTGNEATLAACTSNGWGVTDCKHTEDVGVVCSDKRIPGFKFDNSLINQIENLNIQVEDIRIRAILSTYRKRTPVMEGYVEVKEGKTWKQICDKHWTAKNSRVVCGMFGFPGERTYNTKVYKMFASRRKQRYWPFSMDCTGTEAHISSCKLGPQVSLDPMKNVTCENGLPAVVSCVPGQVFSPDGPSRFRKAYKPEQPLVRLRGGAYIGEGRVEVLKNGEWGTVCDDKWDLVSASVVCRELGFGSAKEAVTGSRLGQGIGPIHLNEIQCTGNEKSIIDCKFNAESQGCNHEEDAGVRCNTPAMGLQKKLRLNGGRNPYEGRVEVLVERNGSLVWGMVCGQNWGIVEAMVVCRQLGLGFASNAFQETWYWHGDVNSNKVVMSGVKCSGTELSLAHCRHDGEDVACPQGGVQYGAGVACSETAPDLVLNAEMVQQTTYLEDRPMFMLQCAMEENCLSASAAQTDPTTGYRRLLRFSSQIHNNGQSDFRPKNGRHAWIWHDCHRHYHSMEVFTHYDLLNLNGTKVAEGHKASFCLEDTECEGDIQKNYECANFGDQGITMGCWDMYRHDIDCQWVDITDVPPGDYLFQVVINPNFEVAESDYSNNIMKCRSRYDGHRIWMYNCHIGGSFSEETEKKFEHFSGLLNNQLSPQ
Type: biochemical
Description: The ability of compounds to inhibit one or more of the lysyl oxidases LOXL2 and/or LOXL3 was determined using a fluorometric assay. This assay measures the activity of lysyl oxidases by coupling the reaction with horseradish peroxidase-catalyzed […]. The activity assay protocol uses cadaverine as substrate that releases hydrogen peroxide upon transformation by the specific LOX family enzyme present in the sample. Hydrogen peroxide is in turn detected using a red fluorescence substrate for HRP-coupled reactions (Amplex Red Enzyme Assays, Thermo Scientific Fisher). This leads to increase in fluorescence that can be easily detected at Ex/Em=540/590 nm in a fluorescence microplate reader.
Recombinant human LOXL2 (lysyl oxidase like 2) and recombinant human LOXL3 (lysyl oxidase like 3) were purchased from R&D systems and assays were performed in 1.2 M urea, 50 mM sodium borate buffer pH 8.0, and 10 mM CaCl.
5 μl of freshly prepared reaction buffer were delivered to reaction wells. Compounds were resuspended in 100% DMSO at 10 mM and delivered into buffer using acoustic technology (Echo550; nanoliter range). A 3× solution of LOXL2 or LOXL3 in reaction buffer was prepared (“enzyme solution”) and 5 μL of enzyme solution was added into the reaction wells. Buffer only was added to column 1 for no protein control. Reactions were incubated for 30 minutes at 37° C. A 3× mixture of cadaverine, Amplex Red, and HRP (“Substrate/Detection Mix) was prepared and subsequently 5 μL of the mixture added to each reaction well. Progress of reactions was monitored for 60 minutes at 37° C. using Clariostar plate reader (ex 530-12, ems 600-40). For all activity assays, pan-LOX inhibitor CCT365623 (Tang et al, 2017) and LOXL2/LOXL3 inhibitor PAT-1251 (PharmaKea) were included as standards.
For the data analysis, the slope of the linear portion of the progress curve was calculated using Clariostar software. Typical analysis interval was between 8-30 min, but varied between experiments. The background-subtracted signals (No protein wells are considered as background) were converted to % activity relative to DMSO controls. Data was analyzed using GraphPad Prism 4 with “sigmoidal dose-response (variable slope)”; 4 parameters with Hill Slope. Constraints: Bottom=Constant equal to 0. Top=Must be less than 120.
`CS(=O)(=O)N1C[C@@H](c2ccccc2)C[C@H]1CS(=O)(=O)c1ccc(CN)s1` (racemic) [Example 223, cis-(5-(((1-(Methylsulfonyl)-4-phenylpyrrolidin-2-yl)methyl)sulfonyl)thiophen-2-yl)methanamine 2,2,2-trifluoroacetate] was tested, and the IC50 was ≤ 500 nM. For `CS(=O)(=O)N1C[C@@H](c2ccccc2)C[C@@H]1CS(=O)(=O)c1ccc(CN)s1` (racemic) [Example 223T, trans-(5-(((1-(Methylsulfonyl)-4-phenylpyrrolidin-2-yl)methyl)sulfonyl)thiophen-2-yl)methanamine 2,2,2-trifluoroacetate], the IC50 was ≤ 500 nM. `NCc1ccnc(OC[C@H]2C[C@H](C3CCCCC3)CN(S(=O)(=O)N3CCS(=O)(=O)CC3)C2)c1` (racemic) [Example 235T, trans-4-((3-(((4-(Aminomethyl)pyridin-2-yl)oxy)methyl)-5-cyclohexylpiperidin-1-yl)sulfonyl)thiomorpholine 1,1-dioxide 2,2,2-trifluoroacetate] was tested, and the IC50 was ≤ 500 nM. `NCc1ccnc(OC[C@@H]2CC(C3CCCCC3)CN2S(=O)(=O)N2CCOCC2)c1` (mixture of isomers) [Example 239RAC, (2-(((2S)-4-Cyclohexyl-1-(morpholinosulfonyl)pyrrolidin-2-yl)methoxy)pyridin-4-yl)methanamine 2,2,2-trifluoroacetate] was tested, and the IC50 was ≤ 500 nM. With `NCc1ccnc(OC[C@H]2C[C@H](c3ccccc3)CN(S(=O)(=O)N3CCOCC3)C2)c1` (relative stereo) [Example 220T, trans-(2-((1-(Morpholinosulfonyl)-5-phenylpiperidin-3-yl)methoxy)pyridin-4-yl)methanamine 2,2,2-trifluoroacetate] the IC50 was 500 to 1000 nM. With `NCc1cccc(OC[C@H]2C[C@H](c3ccccc3)CN(S(=O)(=O)N3CCOCC3)C2)c1` (relative stereo) [Example 221T, trans-(3-((1-(Morpholinosulfonyl)-5-phenylpiperidin-3-yl)methoxy)phenyl)methanamine 2,2,2-trifluoroacetate] the IC50 was ≤ 500 nM. With `NCc1ccc(S(=O)(=O)C[C@H]2C[C@H](c3ccccc3)CN(S(=O)(=O)N3CCOCC3)C2)s1` (relative stereo) [Example 222T, trans-(5-(((1-(Morpholinosulfonyl)-5-phenylpiperidin-3-yl)methyl)sulfonyl)thiophen-2-yl)methanamine 2,2,2-trifluoroacetate] the IC50 was ≤ 500 nM. With `NCc1ccnc(S(=O)(=O)C[C@@H]2C[C@H](C3CCCCC3)CN(S(=O)(=O)N3CCOCC3)C2)c1` (relative stereo) [Example 230, cis-(2-(((5-Cyclohexyl-1-(morpholinosulfony1)piperidin-3-yl)methyl)sulfonyl)pyridin-4-yl)methanamine 2,2,2-trifluoroacetate] the IC50 was ≤ 500 nM. With `NCc1ccnc(S(=O)(=O)C[C@H]2C[C@H](C3CCCCC3)CN(S(=O)(=O)N3CCOCC3)C2)c1` (relative stereo) [Example 230T, trans-(2-(((5-Cyclohexyl-1-(morpholinosulfonyl)piperidin-3-yl)methyl)sulfonyl)pyridin-4-yl)methanamine 2,2,2-trifluoroacetate] the IC50 was ≤ 500 nM. In the case of `NCc1ccnc(OC[C@@H]2C[C@H](C3CCCCC3)CN(S(=O)(=O)N3CCOCC3)C2)c1` (relative stereo) [Example 231, cis-(2-((5-Cyclohexyl-1-(morpholinosulfonyl)piperidin-3-yl)methoxy)pyridin-4-yl)methanamine 2,2,2-trifluoroacetate], the IC50 is reported as ≤ 500 nM. In the case of `NCc1ccnc(S(=O)(=O)C[C@@H]2C[C@H](C3CCCCC3)CN(S(=O)(=O)N3CCS(=O)(=O)CC3)C2)c1` (relative stereo) [Example 234, cis-4-((3-(((4-(Aminomethyl)pyridin-2-yl)sulfonyl)methyl)-5-cyclohexylpiperidin-1-yl)sulfonyl)thiomorpholine 1,1-dioxide 2,2,2-trifluoroacetate], the IC50 is reported as ≤ 500 nM. For `NCc1ccnc(S(=O)(=O)C[C@H]2C[C@H](C3CCCCC3)CN(S(=O)(=O)N3CCS(=O)(=O)CC3)C2)c1` (relative stereo) [Example 234T, trans-4-((3-(((4-(Aminomethyl)pyridin-2-yl)sulfonyl)methyl)-5-cyclohexylpiperidin-1-yl)sulfonyl)thiomorpholine 1,1-dioxide 2,2,2-trifluoroacetate], the IC50 was ≤ 500 nM. For `NCc1ccnc(OC[C@H]2C[C@H](C3CCCCC3)CN(S(=O)(=O)N3CCOCC3)C2)c1` [Example 231T, trans-(2-(((3S,5R)-5-cyclohexyl-1-(morpholinosulfonyl)piperidin-3-yl)methoxy)pyridin-4-yl)methanamine], the IC50 was ≤ 500 nM.
